The text below walks through data of patent US4423218A, “Antibiotic neplanocin A” (Toyo Jozo Kabushiki Kaisha, priority 1978, dated 1983).

Structures are written as SMILES.

Data set [1] in a line: in vivo. Particulars: mouse, ip, mice.
A short description of data set [2]: Nature (basicity). The data set is classed as physicochemical.
Data set [3] in a line: Repeated intraperitoneal administration for 14 days, mortality. The data set is classed as in vivo. The conditions noted are these: intraperitoneally for 14 days, 5 mg/kg/day.
Data set [4] in a line: Solubility. Type of data set: physicochemical.
Data set [5] deals with Helminthosporium oryzae M 0306. Kind of data set: Growth inhibitory activity on plant pathogenic fungi (agar plate). Type of data set: cell-based. Particulars: Bipolaris oryzae, M0306; 100 γ/ml solution, agar plate of Helminthosporium oryzae M 0306; read-out: inhibitory zone diameter. An excerpt: (1) Growth inhibitory activity on plant pathogenic fungi: […]

What is called LD50 is the dose at which mortality reaches 50%. A high value points to lower toxicity. On to `Nc1ncnc2c1ncn2C1C=C(CO)C(O)C1O` (single isomer, unassigned) [neplanocin A], for which the LD50 in data set [1] was found to be 13.7 mg/kg. Besides, the Nature result in data set [2] is given as “weakly basic”. Besides, in data set [3], the mortalities result is given as “No mortalities were observed”. Also, the Solubility entry is “Soluble” in data set [4] (acetic acid); “Soluble” in data set [4] (aqueous acetone); “Insoluble” in data set [4] (benzene); “Insoluble” in data set [4] (chloroform); “Soluble” in data set [4] (dimethylformamide); “Soluble” in data set [4] (dimethylsulfoxide). Moreover, the Solubility entry in data set [4] (ethyl acetate) was “Insoluble”; in data set [4] (hexane) it was “Insoluble”; in data set [4] (water), “Soluble”. For the same molecule, in data set [5], the zone of inhibition at 100 µg/mL came to 18.9 mm.
